# Measurements: US20240277698A1, “METHODS OF USING ALDOSTERONE SYNTHASE INHIBITORS” (CINCOR PHARMA, INC., priority 2021, published 2024)
# Molecular target: T1, aldosterone synthase (Homo sapiens, UniProt P19099)
# T1 construct: synthesized in the adrenal cortex by aldosterone synthase; endogenous in cells; host or cells: adrenal cortex of healthy human subjects (in vivo, oral dosing)
# T1 sequence (P19099 25-503): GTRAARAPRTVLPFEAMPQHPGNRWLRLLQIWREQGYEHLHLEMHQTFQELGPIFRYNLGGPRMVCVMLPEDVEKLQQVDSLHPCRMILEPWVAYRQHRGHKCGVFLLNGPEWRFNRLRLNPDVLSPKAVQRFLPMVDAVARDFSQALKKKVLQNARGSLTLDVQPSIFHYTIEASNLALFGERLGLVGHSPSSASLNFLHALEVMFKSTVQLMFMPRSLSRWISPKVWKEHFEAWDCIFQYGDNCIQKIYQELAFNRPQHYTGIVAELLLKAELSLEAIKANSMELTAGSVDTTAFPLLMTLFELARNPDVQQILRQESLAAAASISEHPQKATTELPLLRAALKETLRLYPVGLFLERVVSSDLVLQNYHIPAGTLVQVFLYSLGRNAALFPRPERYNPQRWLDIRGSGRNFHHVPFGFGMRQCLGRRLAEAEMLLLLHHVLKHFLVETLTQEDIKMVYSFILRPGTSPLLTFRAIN
# Assay: MAD study: plasma aldosterone and precursors (18-hydroxycorticosterone, corticosterone, 11-deoxycorticosterone)
# Format: in vivo
# Details: for Plasma 11-deoxycorticosterone, Day −1 predose / Plasma 18-hydroxycorticosterone, Day −1 predose / Plasma aldosterone, Day −1 predose / Plasma corticosterone, Day −1 predose: baseline; for inhibition of aldosterone synthesis: normal salt diet and low salt diet, 10-day dosing
# Excerpt: For each subject, the study consisted of: • A screening period of up to 28 days; • A 5-day inpatient run-in period during which subjects adhered to a controlled, standardized diet and underwent baseline PD assessments; • A 15-day inpatient treatment period, during which subjects received (R)-compound 1 or placebo once daily for 10 days while adhering to a controlled, standardized diet, followed by PK and PD sampling over an additional 5 days; and • A follow-up visit 3 days (1 day) after discharge from the clinical unit. • A cortisol stimulation test (Cohorts 1 and 2 only) and standing aldosterone assessment (all cohorts) were performed on Days 1 and 10. Serial blood samples for PK and PD were obtained prior to and at specified time points over 24 hours after dosing on Day 1 as well as prior to and at specified time points over 120 hours after dosing on Day 10. In addition, blood samples for PK were collected prior to dosing on Days 8 and 9. Urine for PK and PD measurements was collected over 24 hours starting just prior to dosing on Day 1 as well as over 120 hours starting just prior to dosing on Day 10. […]
# [1] = 2.5 mg QD, normal salt diet, mean
smiles,measurement,setting,value
"CCC(=O)N[C@@H]1CCCc2c(-c3ccc4c(c3)CCC(=O)N4C)cncc21 [(R)-Compound 1, (R)—N-(4-(1-methyl-2-oxo-1,2,3,4-tetrahydroquinolin-6-yl)-5,6,7,8-tetrahydroisoquinolin-8-yl)propionamide]","Plasma 18-hydroxycorticosterone, Day 10, 24 hours postdose","2.5 mg QD, low salt diet, mean",961.8 pg/mL
same,"Plasma 18-hydroxycorticosterone, Day 10, predose","2.5 mg QD, low salt diet, mean",895.4 pg/mL
same,"Plasma 18-hydroxycorticosterone, Percent change from Day −1 to Day 10","2.5 mg QD, low salt diet, mean",−22.0%
same,"Plasma aldosterone, Day 1, 12 hours postdose","2.5 mg QD, low salt diet, mean",48.013 pg/mL
same,"Plasma aldosterone, Day 1, predose","2.5 mg QD, low salt diet, mean",151.988 pg/mL
same,"Plasma aldosterone, Day 10, 12 hours postdose","2.5 mg QD, low salt diet, mean",69.100 pg/mL
same,"Plasma aldosterone, Day 10, 24 hours postdose","2.5 mg QD, low salt diet, mean",112.213 pg/mL
same,"Plasma aldosterone, Day 10, predose","2.5 mg QD, low salt diet, mean",97.538 pg/mL
same,"Plasma aldosterone, Percent change from Day −1 to Day 10, predose","2.5 mg QD, low salt diet, mean",−56.540%
same,"Plasma corticosterone, Day 1, 12 hours postdose","2.5 mg QD, low salt diet, mean",1653.4 pg/mL
same,"Plasma corticosterone, Day 1, predose","2.5 mg QD, low salt diet, mean",3711.5 pg/mL
same,"Plasma corticosterone, Day 10, 12 hours postdose","2.5 mg QD, low salt diet, mean",3412.5 pg/mL
same,"Plasma corticosterone, Day 10, 24 hours postdose","2.5 mg QD, low salt diet, mean",10012.5 pg/mL
same,"Plasma corticosterone, Day 10, predose","2.5 mg QD, low salt diet, mean",7190.0 pg/mL
same,"Plasma corticosterone, Percent change from Day −1 to Day 10, predose","2.5 mg QD, low salt diet, mean",132.0%
same,"Plasma 11-deoxycorticosterone, Day −1 predose",[1],50.017 pg/mL
same,"Plasma 18-hydroxycorticosterone, Day −1 predose",[1],1185.8 pg/mL
same,"Plasma aldosterone, Day −1 predose",[1],153.667 pg/mL
same,"Plasma corticosterone, Day −1 predose",[1],6395.0 pg/mL
same,"Plasma 11-deoxycorticosterone, Day 1, 12 hours postdose",[1],23.667 pg/mL
same,"Plasma 11-deoxycorticosterone, Day 1, predose",[1],53.200 pg/mL
same,"Plasma 11-deoxycorticosterone, Day 2, predose",[1],69.617 pg/mL
same,"Plasma 11-deoxycorticosterone, Day 10, 12 hours postdose",[1],93.780 pg/mL
same,"Plasma 11-deoxycorticosterone, Day 10, 24 hours postdose",[1],177.400 pg/mL
same,"Plasma 11-deoxycorticosterone, Day 10, predose",[1],130.680 pg/mL
same,"Plasma 11-deoxycorticosterone, Percent change from Day −1 to Day 10, predose",[1],171.567%
same,"Plasma 18-hydroxycorticosterone, Day 1, 12 hours postdose",[1],267.3 pg/mL
same,"Plasma 18-hydroxycorticosterone, Day 1, predose",[1],1087.0 pg/mL
same,"Plasma 18-hydroxycorticosterone, Day 2, predose",[1],901.2 pg/mL
same,"Plasma 18-hydroxycorticosterone, Day 10, 12 hours postdose",[1],345.6 pg/mL
same,"Plasma 18-hydroxycorticosterone, Day 10, 24 hours postdose",[1],1238.0 pg/mL
same,"Plasma 18-hydroxycorticosterone, Day 10, predose",[1],1073.4 pg/mL
same,"Plasma 18-hydroxycorticosterone, Percent change from Day −1 to Day 10",[1],−10.4%
same,"Plasma aldosterone, Day 1, 12 hours postdose",[1],16.535 pg/mL
same,"Plasma aldosterone, Day 1, predose",[1],131.250 pg/mL
same,"Plasma aldosterone, Day 2, predose",[1],37.700 pg/mL
same,"Plasma aldosterone, Day 10, 12 hours postdose",[1],46.360 pg/mL
same,"Plasma aldosterone, Day 10, 24 hours postdose",[1],120.740 pg/mL
same,"Plasma aldosterone, Day 10, predose",[1],101.880 pg/mL
same,"Plasma aldosterone, Percent change from Day −1 to Day 10, predose",[1],−34.296%
same,"Plasma corticosterone, Day 1, 12 hours postdose",[1],889.0 pg/mL
same,"Plasma corticosterone, Day 1, predose",[1],5828.3 pg/mL
same,"Plasma corticosterone, Day 2, predose",[1],6328.3 pg/mL
same,"Plasma corticosterone, Day 10, 12 hours postdose",[1],2704.0 pg/mL
same,"Plasma corticosterone, Day 10, 24 hours postdose",[1],11182.0 pg/mL
same,"Plasma corticosterone, Day 10, predose",[1],8102.0 pg/mL
same,"Plasma corticosterone, Percent change from Day −1 to Day 10, predose",[1],60.6%
same,"Plasma 11-deoxycorticosterone, Day −1 predose","5.0 mg QD, low salt diet, mean",49.111 pg/mL
same,"Plasma 18-hydroxycorticosterone, Day −1 predose","5.0 mg QD, low salt diet, mean",966.3 pg/mL
same,"Plasma aldosterone, Day −1 predose","5.0 mg QD, low salt diet, mean",189.633 pg/mL
same,"Plasma corticosterone, Day −1 predose","5.0 mg QD, low salt diet, mean",3700.7 pg/mL
same,"Plasma 11-deoxycorticosterone, Day 1, 12 hours postdose","5.0 mg QD, low salt diet, mean",94.622 pg/mL
same,"Plasma 11-deoxycorticosterone, Day 1, predose","5.0 mg QD, low salt diet, mean",55.789 pg/mL
same,"Plasma 11-deoxycorticosterone, Day 10, 12 hours postdose","5.0 mg QD, low salt diet, mean",219.700 pg/mL
same,"Plasma 11-deoxycorticosterone, Day 10, 24 hours postdose","5.0 mg QD, low salt diet, mean",308.444 pg/mL
same,"Plasma 11-deoxycorticosterone, Day 10, predose","5.0 mg QD, low salt diet, mean",218.611 pg/mL
same,"Plasma 11-deoxycorticosterone, Percent change from Day −1 to Day 10, predose","5.0 mg QD, low salt diet, mean",573.144%
same,"Plasma 18-hydroxycorticosterone, Day 1, 12 hours postdose","5.0 mg QD, low salt diet, mean",162.3 pg/mL
same,"Plasma 18-hydroxycorticosterone, Day 1, predose","5.0 mg QD, low salt diet, mean",825.8 pg/mL
same,"Plasma 18-hydroxycorticosterone, Day 10, 12 hours postdose","5.0 mg QD, low salt diet, mean",405.2 pg/mL
same,"Plasma 18-hydroxycorticosterone, Day 10, 24 hours postdose","5.0 mg QD, low salt diet, mean",1298.0 pg/mL
same,"Plasma 18-hydroxycorticosterone, Day 10, predose","5.0 mg QD, low salt diet, mean",1159.6 pg/mL
same,"Plasma 18-hydroxycorticosterone, Percent change from Day −1 to Day 10","5.0 mg QD, low salt diet, mean",38.2%
same,"Plasma aldosterone, Day 1, 12 hours postdose","5.0 mg QD, low salt diet, mean",17.511 pg/mL
same,"Plasma aldosterone, Day 1, predose","5.0 mg QD, low salt diet, mean",182.800 pg/mL
same,"Plasma aldosterone, Day 10, 12 hours postdose","5.0 mg QD, low salt diet, mean",49.467 pg/mL
same,"Plasma aldosterone, Day 10, 24 hours postdose","5.0 mg QD, low salt diet, mean",125.811 pg/mL
same,"Plasma aldosterone, Day 10, predose","5.0 mg QD, low salt diet, mean",98.367 pg/mL
same,"Plasma aldosterone, Percent change from Day −1 to Day 10, predose","5.0 mg QD, low salt diet, mean",−36.400%
same,"Plasma corticosterone, Day 1, 12 hours postdose","5.0 mg QD, low salt diet, mean",890.3 pg/mL
same,"Plasma corticosterone, Day 1, predose","5.0 mg QD, low salt diet, mean",2726.3 pg/mL
same,"Plasma corticosterone, Day 10, 12 hours postdose","5.0 mg QD, low salt diet, mean",4738.9 pg/mL
same,"Plasma corticosterone, Day 10, 24 hours postdose","5.0 mg QD, low salt diet, mean",13976.7 pg/mL
same,"Plasma corticosterone, Day 10, predose","5.0 mg QD, low salt diet, mean",11962.2 pg/mL
same,"Plasma corticosterone, Percent change from Day −1 to Day 10, predose","5.0 mg QD, low salt diet, mean",460.2%
same,doses that markedly decrease aldosterone levels,low salt diet and normal salt diet,> 0.5 mg
same,inhibition of aldosterone synthesis,,"marked, sustained, selective, and generally dose dependent inhibition"
same,inhibition of aldosterone synthesis,listed as (R)-compound 1,"marked, sustained, selective, and generally dose dependent inhibition"
